This is an account of results in patent US20260241012A1, “1,8-NAPHTHYRIDIN-2-ONE HETEROBIFUNCTIONAL BCL6 DEGRADERS” (Treeline Biosciences, Inc., priority 2022, published 2026).

The assay has as its target T1, N-terminal HiBiT tagged BCL6 (Homo sapiens, UniProt P41182).
T1 construct: expressed in transfected cells; host or cells: HT1080 (ATCC CCL-121), stably transduced with lentivirus pLV-UBC-N-HiBiT-BCL6-PGK-puro
In words: HiBiT based degradation assay. The following applies: HT1080 cells expressing N-terminal HiBiT tagged BCL6, 5 hours of incubation; for Ymin (5 hr): BCL6 degradation normalized with DMSO control; for DC50: four-parameter logistic model, read-out: EC50 (5 hr). In kind it is cell-based. In short, it runs like this:
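Degradation measured by luminescence from the Nano-Glo HiBiT lytic reagent (15 min, room temperature), normalized to DMSO controls and fitted to a four-parameter curve.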
(With HiBiT, luminescence reflects the tagged protein that the partner subunit can reach.)

Where only a bound is given, the exact number is not on record here.

For `CNC(=O)COc1cc2cc(Nc3nc(N4CC5(CC[C@@H](Nc6ccc7c(C8CCC(=O)NC8=O)nn(C)c7c6)[C@@H](C)C5)C4)ncc3Cl)cnc2n(C(C)C)c1=O` (relative stereo) [Compound 180a, rel-2-((6-((5-chloro-2-((6S,7R)-7-((3-(2,6-dioxopiperidin-3-yl)-1-methyl-1H-indazol-6-yl)amino)-6-methyl-2-azaspiro[3.5]nonan-2-yl)pyrimidin-4-yl)amino)-1-isopropyl-2-oxo-1,2-dihydro-1,8-naphthyridin-3-yl)oxy)-N-methylacetamide], the “Ymin (5 hr)” value is listed as “+++ (30% ≤ Ymin < 50%)” and the DC50 was 10 to 100 nM.
The matching figures for `CNC(=O)COc1cc2cc(Nc3nc(N4CCC(O)(CN5CCC(c6cccc7c(C8CCC(=O)NC8=O)nn(C)c67)CC5)CC4)ncc3Cl)cnc2n(C(C)C)c1=O` (stereo not drawn) [Compound 203, 2-[[6-[[5-chloro-2-[4-[[4-[3-(2,6-dioxo-3-piperidyl)-1-methyl-indazol-7-yl]-1-piperidyl]methyl]-4-hydroxy-1-piperidyl]pyrimidin-4-yl]amino]-1-isopropyl-2-oxo-1,8-naphthyridin-3-yl]oxy]-N-methyl-acetamide]: “++++ (Ymin < 30%)” and under 10 nM.
The corresponding values for `CNC(=O)COc1cc2cc(Nc3nc(N4CCN(C[C@@H]5CCN(c6ccc7c(C8CCC(=O)NC8=O)nn(C)c7c6)C5)[C@H](C)C4)ncc3Cl)cnc2n(C(C)C)c1=O` (stereo partly drawn) [Compound 216d, 2-[[6-[[5-chloro-2-[(3R)-4-[[(3S)-1-[3-(2,6-dioxo-3-piperidyl)-1-methyl-indazol-6-yl]pyrrolidin-3-yl]methyl]-3-methyl-piperazin-1-yl]pyrimidin-4-yl]amino]-1-isopropyl-2-oxo-1,8-naphthyridin-3-yl]oxy]-N-methyl-acetamide] are “+++ (30% ≤ Ymin < 50%)” and under 10 nM.
The corresponding values for `CNC(=O)COc1cc2cc(Nc3nc(N4CCN(CC5CCN(c6cccc7c(C8CCC(=O)NC8=O)nn(C)c67)CC5)[C@@H](C(F)(F)F)C4)ncc3Cl)cnc2n(C(C)C)c1=O` (stereo partly drawn) [Compound 163a, 2-[[6-[[5-chloro-2-[(3R)-4-[[1-[3-(2,6-dioxo-3-piperidyl)-1-methyl-indazol-7-yl]-4-piperidyl]methyl]-3-(trifluoromethyl)piperazin-1-yl]pyrimidin-4-yl]amino]-1-isopropyl-2-oxo-1,8-naphthyridin-3-yl]oxy]-N-methyl-acetamide] are “+++ (30% ≤ Ymin < 50%)” and 100 to 1000 nM.
In the case of `CNC(=O)COc1cc2cc(Nc3nc(N4CCC5(CCN(CC6CCN(c7cccc8c(C9CCC(=O)NC9=O)nn(C)c78)CC6)CC5)CC4)ncc3Cl)cnc2n(C)c1=O` (stereo not drawn) [Compound 113, 2-((6-((5-chloro-2-(9-((1-(3-(2,6-dioxopiperidin-3-yl)-1-methyl-1H-indazol-7-yl)piperidin-4-yl)methyl)-3,9-diazaspiro[5.5]undecan-3-yl)pyrimidin-4-yl)amino)-1-methyl-2-oxo-1,2-dihydro-1,8-naphthyridin-3-yl)oxy)-N-methylacetamide], the “Ymin (5 hr)” value was “++++ (Ymin < 30%)” and the DC50 was in the range of 10 to 100 nM.
The matching figures for `CNC(=O)COc1cc2cc(Nc3nc(N4CCC5(CC4)CN(CC4CCN(c6ccc7c(C8CCC(=O)NC8=O)nn(C)c7c6)CC4)C5)ncc3Cl)cnc2n(C)c1=O` (stereo not drawn) [Compound 121, 2-((6-((5-chloro-2-(2-((1-(3-(2,6-dioxopiperidin-3-yl)-1-methyl-1H-indazol-6-yl)piperidin-4-yl)methyl)-2,7-diazaspiro[3.5]nonan-7-yl)pyrimidin-4-yl)amino)-1-methyl-2-oxo-1,2-dihydro-1,8-naphthyridin-3-yl)oxy)-N-methylacetamide]: “+++ (30% ≤ Ymin < 50%)” and under 10 nM.
With `CNC(=O)COc1cc2cc(Nc3nc(N4CC5(CC(Nc6ccc7c(C8CCC(=O)NC8=O)nn(C)c7c6)C5)C4)ncc3Cl)cnc2n(C(C)C)c1=O` (stereo not drawn) [Compound 202, 2-[[6-[[5-chloro-2-[6-[[3-(2,6-dioxo-3-piperidyl)-1-methyl-indazol-6-yl]amino]-2-azaspiro[3.3]heptan-2-yl]pyrimidin-4-yl]amino]-1-isopropyl-2-oxo-1,8-naphthyridin-3-yl]oxy]-N-methyl-acetamide], the “Ymin (5 hr)” value is given as “++++ (Ymin < 30%)” and the DC50 is under 10 nM.
The corresponding values for `CNC(=O)COc1cc2cc(Nc3nc(N4CCN(C[C@H]5CCN(c6ccc7c(C8CCC(=O)NC8=O)nn(C)c7c6)C5)[C@H](C)C4)ncc3Cl)cnc2n(C(C)C)c1=O` (stereo partly drawn) [Compound 216c, 2-[[6-[[5-chloro-2-[(3R)-4-[[(3R)-1-[3-(2,6-dioxo-3-piperidyl)-1-methyl-indazol-6-yl]pyrrolidin-3-yl]methyl]-3-methyl-piperazin-1-yl]pyrimidin-4-yl]amino]-1-isopropyl-2-oxo-1,8-naphthyridin-3-yl]oxy]-N-methyl-acetamide] are “++ (50% ≤ Ymin < 70%)” and under 10 nM.
The matching figures for `CNC(=O)COc1cc2cc(Nc3nc(N4CCCN(CC5CCN(c6ccc7c(C8CCC(=O)NC8=O)nn(C)c7c6)CC5)CC4)ncc3Cl)cnc2n(C)c1=O` (stereo not drawn) [Compound 111, 2-((6-((5-chloro-2-(4-((1-(3-(2,6-dioxopiperidin-3-yl)-1-methyl-1H-indazol-6-yl)piperidin-4-yl)methyl)-1,4-diazepan-1-yl)pyrimidin-4-yl)amino)-1-methyl-2-oxo-1,2-dihydro-1,8-naphthyridin-3-yl)oxy)-N-methylacetamide]: “+++ (30% ≤ Ymin < 50%)” and under 10 nM.
As for `CNC(=O)COc1cc2cc(Nc3nc(N4CC[C@@H](CN5CCN(c6cccc7c(C8CCC(=O)NC8=O)nn(C)c67)CC5)[C@H](F)C4)ncc3Cl)cnc2n(C(C)C)c1=O` (relative stereo) [Compound 238a, 2-((6-((5-chloro-2-((3S,4S)-4-((4-(3-(2,6-dioxopiperidin-3-yl)-1-methyl-1H-indazol-7-yl)piperazin-1-yl)methyl)-3-fluoropiperidin-1-yl)pyrimidin-4-yl)amino)-1-isopropyl-2-oxo-1,2-dihydro-1,8-naphthyridin-3-yl)oxy)-N-methylacetamide], the “Ymin (5 hr)” value is reported as “++++ (Ymin < 30%)” and the DC50 is 10 to 100 nM.
The matching figures for `CNC(=O)COc1cc2cc(Nc3nc(N4CC5(CN(CC6CCN(c7ccc8c(C9CCC(=O)NC9=O)nn(C)c8c7)CC6)C5)C4)ncc3Cl)cnc2n(C)c1=O` (stereo not drawn) [Compound 118, 2-((6-((5-chloro-2-(6-((1-(3-(2,6-dioxopiperidin-3-yl)-1-methyl-1H-indazol-6-yl)piperidin-4-yl)methyl)-2,6-diazaspiro[3.3]heptan-2-yl)pyrimidin-4-yl)amino)-1-methyl-2-oxo-1,2-dihydro-1,8-naphthyridin-3-yl)oxy)-N-methylacetamide]: “++++ (Ymin < 30%)” and under 10 nM.
The corresponding values for `CNC(=O)COc1cc2cc(Nc3nc(N4CC5(CC[C@@H](Nc6cccc7c(C8CCC(=O)NC8=O)nn(C)c67)[C@@H](C)C5)C4)ncc3Cl)cnc2n(C)c1=O` (relative stereo) [Compound 159b, 2-((6-((5-chloro-2-((6S,7R)-7-((3-(2,6-dioxopiperidin-3-yl)-1-methyl-1H-indazol-7-yl)amino)-6-methyl-2-azaspiro[3.5]nonan-2-yl)pyrimidin-4-yl)amino)-1-methyl-2-oxo-1,2-dihydro-1,8-naphthyridin-3-yl)oxy)-N-methylacetamide] are “+++ (30% ≤ Ymin < 50%)” and under 10 nM.
